Assays:
[1] = tested on: KM101 human marrow stromal cells; assay: Irradiation survival of KM101 marrow stromal cells (colony assay); type: cell-based; conditions: for n (shoulder): 0 to 6 Gy
Method: FIG. 7 is a graph showing that JP4-039 is an effective mitigator of irradiation damage to KM101 human marrow stromal cells. KM101 cells were incubated in media alone or in JP4-039 ([…]) for one hour before irradiation or 24 hours after irradiation. The cells were irradiated to doses ranging from 0 to 6 Gy and plated in 4 well plates. Seven days later the cells were stained with crystal violet and colonies of greater than 50 cells counted. Cells incubated in JP4-039 either before or after irradiation were more radioresistant as shown by an increased shoulder of n=2.3±0.2 or 2.2±0.2, respectively compared to n of 1.1±0.1 for the KM101 cells (p=0.0309 or 0.0386, respectively).

[2] = tested on: 32D cl 3 mouse hematopoietic progenitor cell line; assay: Irradiation survival curves of 32D cl 3 cells (colony assay); type: cell-based; conditions: for ñ (shoulder on the survival curve): 0 to 8 Gy
Method: Groups of 15 mice received intraperitoneal injection of 10 mg. per kilogram of each indicated GS-nitroxide compound or carrier (Cremphora plus alcohol at 1 to 1 ratio, then diluted 1 to 10 in distilled water). Mice received 10 mg per kilogram intra-peritoneal injection 24 hours prior to total body irradiation. Control mice received radiation alone. […] (P=0.0005) FIG. 6 is a graph showing that GS-nitroxide JP4-039 is an effective hematopoietic cell radiation mitigator when delivered 24 hr after irradiation. Irradiation survival curves were performed on cells from the 32D cl 3 mouse hematopoietic progenitor cell line, incubated in 10 μM JP4-039 for 1 hour before irradiation, or plated in methylcellulose containing 10 μM […] after irradiation. Cells were irradiated from 0 to 8 Gy, plated in 0.8% methylcellulose containing media, and incubated for 7 days at 37° C. Colonies of greater than 50 cells were counted and data analyzed by linear quadratic and single-hit, multi-target models.

[3] = Clearance of intravenously injected JP4-039 measured by EPR; type: in vivo, mouse; design: dose or concentration left out as unconfirmed
Text: FIGS. 13A-13B. Pharmacokinetics of clearance of JP4-039 intravenously injected into C57BL/6JHNsd mice in (FIG. 13A) plasma and (FIG. 13B) lung. […] Serum samples were collected and assayed. Each symbol represents an individual mouse. The methods for assay of nitroxide by EPR have been published previously (Borisenko G G, et al. J Am Chem Soc 4(30): 9221-9232, 2004 and Jiang J, et al. A mitochondria-targeted triphenylphosphonium-conjugated nitroxide functions as a radioprotector/mitigator. Radiat Res 172(6): 706-717, 2009).
Measurement of JP4-039 nitroxide in serum and in tissues by electron paramagnetic resonance. Electron paramagnetic resonance (EPR) spectra of nitroxide radicals in cells or in mitochondrial fractions were recorded after mixing with acetonitrile (1:1 v/v) after 5 min incubation with 2 mM K3Fe(CN)6 using a JEOL-RE1XEPR spectrometer (JEOL, USA, Inc., Peabody, Mass., USA) under the following conditions: 3350 G center field, 25 G scan range, 0.79 G field modulation, 20 mW microwave power, 0.1 s time constant, 4 min scan time. Under these experimental conditions, nitroxides were not detectably oxidized by […] to EPR-silent oxoamminium cations. Mitochondria-enriched fractions were obtained by differential centrifugation. […] Partitioning efficiency was calculated as a percentage of the initial signal. […] After that, samples were centrifuged at 10,000 g for 5 min, and the pellets washed twice with the incubation buffer and analyzed by EPR as described previously (Borisenko G G, et al. Nitroxides scavenge myeloperoxidase-catayzed thiyl radicals in model systems and in cells. J Am Chem Soc 4(30): 9221-9232, 2004 and Jiang J, et al. A mitochondria-targeted triphenylphosphonium-conjugated nitroxide functions as a radioprotector/mitigator. Radiat Res 172(6): 706-717, 200938-39).
Intravenous JP4-039 systemic pharmacokinetics and intraesophageal formulation mediated delivery to esophagus. […] JP4-039 was cleared from plasma by 10 min, but was detected in lung (and intestine) for over 30 minutes.

[4] = JP4-039 uptake in normal tissue and orthotopic tumors after intraesophageal administration (EPR); type: in vivo, mouse
Method: Lastly, to determine whether JP4-039 was taken up by other tissue, esophagus, lung orthotopic tumor, liver, and peripheral blood samples were taken 10, 30, and 60 minutes after intraesophageal administration of the compound. Samples were snap-frozen on dry ice and JP4-039 content was quantified by EPR analysis.
To determine if the orally-administered JP4-039 also reached other tissues and orthotopic tumors, esophagus, peripheral blood, bone marrow, liver, and 3LL orthotopic tumors were harvested at 10, 30, and 60 minutes after intraesophageal administration of JP4-039, followed by quantification by EPR. […] JP4-039 levels in peripheral blood and orthotopic tumor peaked at 30 minutes at 51.1 and 276.0 pmol/mg protein, respectively. […] Lower levels of JP4-039 were detected in bone marrow up to 60 minutes after drug swallow compared to levels in liver and tumor tissue.

[5] = intraesophageal, F15 formulation

With `CC(C)C[C@@H](/C=C/CC(=O)NC1CC(C)(C)N([O])C(C)(C)C1)NC(=O)OC(C)(C)C` [JP4-039, TEMPO-4-yl-(S,E)-5-(tert-butoxycarbonylamino)-7-methyloct-3-enamide] the “n (shoulder)” value ([1]; 24 hours after irradiation, KM101 alone 1.1±0.1, p=0.0386) was 2.2±0.2, the Do ([1]; before or after irradiation vs media alone) was “no significant change” and the “n (shoulder)” value ([1]; for one hour before irradiation, KM101 alone 1.1±0.1, p=0.0309) was 2.3±0.2. The “ñ (shoulder on the survival curve)” value ([2]; 10 μM for 1 hour before irradiation, cells alone 1.29±0.13, p=0.0109) was 5.25±0.84, the “survival of 32D c13 cells” value ([2]; 10 μM for one hour, 0-8 Gy irradiation, preliminary data) was “increased survival” and the “ñ (shoulder on the survival curve)” value ([2]; 10 μM in methylcellulose after irradiation, cells alone 1.29±0.13, p=0.0022) was 4.55±0.47. The “time detected in intestine” value [3] was “over 30 minutes”, the “time detected in lung” value [3] was “over 30 minutes” and the “time by which cleared from plasma” value ([3]; intravenous in 100 μl) was at most 10 min. The “time of peak level in liver” value [4, 5] was 10 min, the “time of peak level in orthotopic tumor” value [4, 5] was 30 min and the “time of peak level in peripheral blood” value [4, 5] was 30 min. The “peak JP4-039 level in orthotopic tumor” value ([4]; intraesophageal, F15 formulation, 3LL tumor, at 30 minutes, EPR) was 276.0 pmol/mg protein, the “peak JP4-039 level in liver” value ([4]; intraesophageal, F15 formulation, at 10 minutes, EPR) was 122/2 and the “peak JP4-039 level in peripheral blood” value ([4]; intraesophageal, F15 formulation, at 30 minutes, EPR) was 51.1 pmol/mg protein. The “JP4-039 level in bone marrow compared to liver and tumor tissue” value ([4]; up to 60 minutes after drug swallow) was “Lower levels”.

Source: patent US20190210969A1, “INTRAESOPHAGEAL ADMINISTRATION OF TARGETED NITROXIDE AGENTS FOR PROTECTION AGAINST IONIZING IRRADIATION-INDUCED ESOPHAGITIS” (University of Pittsburgh - Of the Commonwealth System of …, priority 2010, published 2019)
